Experimental data taken from patent US6649367B2, “Human cancer cell line malignantly altered by expression of angiogenic factor” (Eisai Co., Ltd, priority 2001, dated 2003).

System: KP-1/VEGF cells
Experiment: Effect on in vivo angiogenesis induced by KP-1/VEGF (chamber transplanted in mouse dorsal air sac, 51Cr-labelled blood cells)
Conditions: for In vivo angiogenesis-inducing activity (volume of blood vessel): C57BL/6N mouse, KP-1/VEGF chamber, four days after transplantation; for In vivo angiogenesis inhibitory effect: =(X−B)/(A−B)×100, A control, B collagen, X administered group
Description: 3×10^6 cells/0.17 ml suspension of KP-1/VEGF cells was prepared using a collagen solution. In a chamber formed by adhering 0.45-μm Durapore filter membrane (Millipore) to a chamber ring (Millipore), 0.17 ml of the suspension was injected through the injection inlet and sealed. An air sac of about 10 ml was formed on dorsal subcutaneous portion of a 6-week-old female C57BL/6N mouse under anesthesia and the chamber enclosing the cells therein was transplanted in the air sac.
From the day of transplantation, ZD6474 as a VEGFR kinase inhibitor and ZD1839(Iressa) as an EGFR kinase inhibitor were each orally administered in dosage of 25, 50 or 100 mg/kg once a day for 4 days.
Four days after the transplantation, 2,500,000 cpm/ml of blood cell suspension prepared by labeling the cells with sodium chromate (^51Cr) (Amersham Pharmacia) was injected in an amount of 0.2 ml each through the tail vein of the chamber-transplanted mouse, and then the skin portion contacting the chamber was cut out and the radioactivity thereof was measured by use of a γ-counter. From the measured radioactivity, the amount of blood (volume of blood vessel) was calculated and was used as an index of in vivo angiogenesis-inducing activity.
Further, providing that the in vivo angiogenesis-inducing activity of control is A, the in vivo angiogenesis-inducing activity of collagen is B, and the in vivo angiogenesis-inducing activity of each administered group is X, in vivo angiogenesis inhibitory effect was obtained by the following equation. In vivo angiogenesis inhibitory effect (%)

[1] = 25 mg/kg orally once a day for 4 days
[2] = 50 mg/kg orally once a day for 4 days
[3] = 100 mg/kg orally once a day for 4 days

| SMILES | In vivo angiogenesis-inducing activity (volume of blood vessel) [1] [µL] | In vivo angiogenesis-inducing activity (volume of blood vessel) [2] [µL] | In vivo angiogenesis-inducing activity (volume of blood vessel) [3] [µL] | In vivo angiogenesis inhibitory effect [1] [%] | In vivo angiogenesis inhibitory effect [2] [%] | In vivo angiogenesis inhibitory effect [3] [%] |
| --- | --- | --- | --- | --- | --- | --- |
| COc1cc2ncnc(Nc3ccc(F)c(Cl)c3)c2cc1OCCCN1CCOCC1 [ZD1839] | 2.75 ± 0.66 | 2.77 ± 0.47 | 2.76 ± 0.73 | – | – | – |
| COc1cc2c(Nc3ccc(Br)cc3F)ncnc2cc1OCC1CCN(C)CC1 [ZD6474] | 2.56 ± 0.26 | 2.18 ± 0.38 | 1.47 ± 0.40 | 68.0 | 40.8 | −10.9 |
